Experimental data from patent publication US12303509B2, “Compounds for the treatment of BRAF-associated diseases and disorders” (Pfizer Inc., priority 2020, dated 2025).
Counter-ions that a name gives are not always drawn. Like-named read-outs stand apart in the source and are kept apart here.

Tests used:
[1] = PK (free brain-to-free plasma ratio) (mouse); type: in vivo; settings: male CD-1 mice, oral gavage 10 mg/kg, unbound brain-to-unbound plasma, read-out: B/P ratio (free)
Description: The ability of representative compounds to penetrate the BBB in mice was determined by evaluating the unbound brain-to-unbound plasma (also referred to as free brain-to-free plasma) concentration ratio in male CD-1 mice.
Brain compound levels were generated from oral mouse PK dosing with typical sampling times of 2, 4, 8, 12 and 24 hours post oral gavage dosing at 10 mg/kg. Brain samples were stored at −20±5° C. prior to analysis. Concentrations of test compound in mouse brain homogenate were determined by liquid chromatography tandem mass spectrometry (LC-MS/MS) following protein precipitation with acetonitrile. A 12-point calibration curve, ranging from 0.5 to 10,000 ng/mL, was prepared in duplicate. A solution of 400 μg/mL of test compound in dimethyl sulfoxide (DMSO) was serially diluted (3-fold) in 100% DMSO, and then 2.5 μL of each standard solution was added to 100 μL of naïve male CD-1 mice brain homogenate. To mimic the extraction in the standard curve, 2.5 μL of DMSO was added to all test samples. Both calibration and test brain homogenate samples were spiked with 10 μL of an IS (1 μg/mL of a structural analog). Brain homogenate was generated by adding 0.75 mL of 4:1 water:MeOH to each brain sample followed by homogenization for 1 minute with bead beater tubes a 6 m/s using an MP Fast Prep-24®. Proteins were precipitated from 100 μL of brain homogenate sample by the addition of 300 μL of acetonitrile. Samples were vortex-mixed for 5 minutes and spun in an Allegra X-12R centrifuge (Beckman Coulter, Fullerton, CA; SX4750A rotor) for 15 min at approximately 1,500×g at 4° C. A 100 μL aliquot of each supernatant was transferred via a 550 μL Personal Pipettor (Apricot Designs, Monrovia, CA) to 96-well plates and diluted 1:1 with HPLC grade water. The resulting plates were sealed with aluminum for LC-MS/MS analysis.
Brain-to-plasma ratios were calculated using the concentration of compound measured in the brain divided by the concentration of compound measured in the plasma. Brain-to-plasma ratios were always generated from a single animal and time point. Free brain-to-free plasma ratios were calculated by multiplying the brain-to-plasma ratio by the in vitro brain homogenate free fraction divided by the in vitro plasma free fraction using the following equation: (B/P)*(Bfu/Pfu). Table C provides the free brain-to-free plasma ratios of compounds disclosed herein.

[2] = target: P-gp (MDR1) (Homo sapiens (Human), UniProt P08183); assay: MDR1 LLC-PK1 permeability assay: efflux ratio; type: in vitro ADME; settings: pig
Excerpt: (§1) Final organic concentration in the assay was 1%.

[3] = target: BCRP (Homo sapiens (Human), UniProt Q9UNQ0); assay: BCRP MDCKII permeability assay: efflux ratio; type: in vitro ADME; settings: dog
[4] = target: full-length FLAG-tagged B-Raf(V600E) (Homo sapiens (Human), UniProt P15056, V600E); assay: BRAF V600E enzyme assay (TR-FRET competitive displacement); type: binding
Summary of the method: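 TR-FRET tracer competition: compound (top dose 10 μM, 3-fold, 11 points) incubated 60 min at ambient temperature with FLAG-tagged full-length B-Raf(V600E) (5 nM), Eu anti-FLAG cryptate (0.5 nM) and tracer (50 nM), pH 7.4 HEPES/MgCl2 buffer. 665/615 ratio converted to percent of control; IC50 where fitted curve crosses 50 POC.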

[5] = tested on: H1755 cells; assay: Cellular phospho-ERK inhibition assay in H1755 cells; type: cell-based; settings: Homo sapiens, NCI-H1755, 2 hours treatment, read-out: H1755 Cell IC50
Summary of the method: (§2)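 In Cell Western detection of phospho-ERK1/2 (Thr202/Tyr204) over GAPDH after 2 h compound exposure (66 pM to 10 μM, 9 points, 0.25% DMSO) of A375 cells in DMEM or H1755 cells in RPMI, both with 10% FBS. Percent of control set by DMSO and 10 μM binimetinib; 4-parameter IC50.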

[6] = MDR1 LLC-PK1 and BCRP MDCKII permeability assay: permeability coefficient (Papp); type: in vitro ADME
Excerpt: as §1

[7] = tested on: A375 cells; assay: Cellular phospho-ERK inhibition assay in A375 cells; type: cell-based; settings: Homo sapiens, A-375, A375 cells (head prints A357), 2 hours treatment, read-out: A357 cell IC50
Summary of the method: as §2

[8] = tested on: NCI-H1666 (BRAF G466V) cells; assay: Cellular phospho-ERK inhibition assay in NCI-H1666 cells; type: cell-based; settings: Homo sapiens, 1 hour treatment, read-out: IC50 NCI-H1666 pERK
Description: (§3) The compounds of Example 13, Example 14 and Example 126 were evaluated in a phospho-ERK assay in two mutant BRAF Class III cell lines: NCI-H1666 (BRAF^G466V) and WM3629 cells (BRAF^D594G/NRAS^G12D). NCI-H1666 cells were obtained from the American Type Culture Collection (ATCC, Rockville, MD) and WM3629 cells were obtained from Rockland Immunochemicals (Limerick, PA). Cells were maintained in RPMI growth medium containing 10% FBS.
(§4) Cells were harvested according to standard protocols, counted, and plated onto flat-bottom, 96-well tissue culture plates (Costar #3599) at 2.5×10^4 cells/well in 100 μL/well of growth medium containing 10% FBS. After an overnight incubation at 37° C. with 5% CO2 cells were treated for 1 hour at 37° C., 5% CO2 with inhibitors prepared as a 9-point, 1:3.33 fold dilution series with final compound concentrations ranging from 66 pM-10 μM and a constant DMSO concentration of 0.25%. Control wells contained either 0.25% DMSO alone (uninhibited control) or 10 μM binimetinib (complete inhibition control). The levels of phosphorylated ERK were determined using an In Cell Western protocol: following compound incubation, growth medium was discarded, and cells were fixed with 0.4% formaldehyde in PBS for 20 minutes at room temperature. Cells were permeabilized with 100% methanol for 10 minutes at room temperature. Plates were washed with PBS containing 0.05% Tween-20 and blocked for 1 hour at room temperature with LI-COR Blocking Buffer (LI-COR Biosciences; Cat. #927-40000). Plates were then incubated for 2 hours at room temperature with 50 μL of a 1:400 dilution of anti-phospho-ERK1/2 (Thr202/Tyr204) (Cell Signaling; Cat. #9101) and a 1:1000 dilution of anti-GAPDH (Millipore; Cat. #MAB374) in LI-COR blocking buffer containing 0.05% Tween-20. […] Plates were analyzed by reading on an Odyssey CLx infrared scanner. […]
(§5) [formula] • Where: • Xmax d Average Uninhibited Controls • Xmin Average Complete Inhibition Controls • IC50 values were then calculated using a 4-parameter fit in XLfit software and are shown in Table A2.

[9] = tested on: WM3629 cells (BRAF D594G/NRAS G12D); assay: Cellular phospho-ERK inhibition assay in WM3629 cells; type: cell-based; settings: 1 hour treatment, read-out: IC50 WM3629 pERK
Description: as §3, §4, §5

[10] = tested on: WM3629 cells (BRAF D594G/NRAS G12D); assay: Proliferation assay (CellTiter-Glo) in WM3629 cells; type: cell-based; settings: 3-5 day incubation
Description: as §3, with “proliferation” for “phospho-ERK”
(§6) Cells were harvested according to standard protocols, counted, and plated onto flat-bottom, 96-well tissue culture plates (Costar #3599) at 2000-5000 cells/well in 100 μL/well of growth medium containing 10% FBS. Cells were incubated at 37° C. with 5% CO2 overnight then treated with inhibitors prepared as a 9-point, 1:3.33 fold dilution series with final compound concentrations ranging from 66 pM-10 μM and a constant DMSO concentration of 0.25%. Control wells contained 0.25% DMSO alone. After a 3-5 day incubation at 37° C., 5% CO2, cell viability was determined by adding 100 μL CellTiter-Glo® Reagent (Promega) to each well and incubated for 15 minutes at room temperature. “Day 0” controls were determined by performing CellTiter-Glo© assay on DMSO control wells at the time of compound treatment (“Day 0” control=0 POC). Luminescence was measured on a Cytation 5 plate reader (BioTek) and values were converted to POC using the following equation:
(§7) [formula] • Where: • Xmax Average DMSO Controls • Xmin Average “Day 0” DMSO Controls • IC50 values were calculated using a 4-parameter fit in XLfit software and are shown in Table A2.

[11] = tested on: NCI-H1666 (BRAF G466V) cells; assay: Proliferation assay (CellTiter-Glo) in NCI-H1666 cells; type: cell-based; settings: Homo sapiens, 3-5 day incubation
Description: as §3, with “proliferation” for “phospho-ERK”
as §6, §7

[12] = tested on: BCRP; settings: reported, Mittapalli et al.; cited from earlier work
[13] = averaged IC50, TR-FRET tracer displacement, 60 min

full-length FLAG-tagged B-Raf(V600E), sequence (P15056 whole entry V600E): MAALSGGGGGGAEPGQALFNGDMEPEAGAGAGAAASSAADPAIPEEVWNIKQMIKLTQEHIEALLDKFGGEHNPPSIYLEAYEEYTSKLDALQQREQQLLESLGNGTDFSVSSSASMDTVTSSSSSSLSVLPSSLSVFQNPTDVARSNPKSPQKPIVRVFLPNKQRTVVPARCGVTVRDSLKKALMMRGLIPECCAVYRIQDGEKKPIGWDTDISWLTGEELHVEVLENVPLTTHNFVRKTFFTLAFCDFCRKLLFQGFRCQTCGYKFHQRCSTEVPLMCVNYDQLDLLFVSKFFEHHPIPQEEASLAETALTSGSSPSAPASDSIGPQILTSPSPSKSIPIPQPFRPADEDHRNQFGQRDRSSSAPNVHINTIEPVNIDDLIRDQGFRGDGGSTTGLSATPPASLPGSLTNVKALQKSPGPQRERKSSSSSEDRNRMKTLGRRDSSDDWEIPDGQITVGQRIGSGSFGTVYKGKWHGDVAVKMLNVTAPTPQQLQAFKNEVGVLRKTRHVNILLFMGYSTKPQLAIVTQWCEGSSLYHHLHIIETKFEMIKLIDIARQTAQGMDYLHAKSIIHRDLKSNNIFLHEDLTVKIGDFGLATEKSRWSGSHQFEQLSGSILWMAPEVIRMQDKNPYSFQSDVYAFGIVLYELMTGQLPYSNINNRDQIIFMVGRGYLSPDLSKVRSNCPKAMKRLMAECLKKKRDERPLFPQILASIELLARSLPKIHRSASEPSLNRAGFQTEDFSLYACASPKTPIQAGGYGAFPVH
BCRP (Homo sapiens (Human), UniProt Q9UNQ0), sequence (Q9UNQ0 whole entry): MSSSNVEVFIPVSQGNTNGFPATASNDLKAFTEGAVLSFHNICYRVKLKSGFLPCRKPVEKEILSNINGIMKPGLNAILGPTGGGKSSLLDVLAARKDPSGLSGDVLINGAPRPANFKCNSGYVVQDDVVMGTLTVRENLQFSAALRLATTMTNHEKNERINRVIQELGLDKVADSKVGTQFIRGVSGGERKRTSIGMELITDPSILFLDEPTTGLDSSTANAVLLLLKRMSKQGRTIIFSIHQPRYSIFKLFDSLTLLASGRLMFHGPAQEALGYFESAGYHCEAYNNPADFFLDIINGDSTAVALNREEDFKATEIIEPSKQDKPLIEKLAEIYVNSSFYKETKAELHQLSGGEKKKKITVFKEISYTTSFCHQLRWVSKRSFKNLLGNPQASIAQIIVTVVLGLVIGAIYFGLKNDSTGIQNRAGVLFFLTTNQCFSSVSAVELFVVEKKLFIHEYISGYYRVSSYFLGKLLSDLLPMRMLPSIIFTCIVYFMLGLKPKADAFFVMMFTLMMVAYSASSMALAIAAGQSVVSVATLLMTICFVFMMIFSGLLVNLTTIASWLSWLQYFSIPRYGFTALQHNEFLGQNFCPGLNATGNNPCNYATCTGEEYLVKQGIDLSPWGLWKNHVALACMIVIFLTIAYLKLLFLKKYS
P-gp (MDR1), sequence (P08183 whole entry, species assumed): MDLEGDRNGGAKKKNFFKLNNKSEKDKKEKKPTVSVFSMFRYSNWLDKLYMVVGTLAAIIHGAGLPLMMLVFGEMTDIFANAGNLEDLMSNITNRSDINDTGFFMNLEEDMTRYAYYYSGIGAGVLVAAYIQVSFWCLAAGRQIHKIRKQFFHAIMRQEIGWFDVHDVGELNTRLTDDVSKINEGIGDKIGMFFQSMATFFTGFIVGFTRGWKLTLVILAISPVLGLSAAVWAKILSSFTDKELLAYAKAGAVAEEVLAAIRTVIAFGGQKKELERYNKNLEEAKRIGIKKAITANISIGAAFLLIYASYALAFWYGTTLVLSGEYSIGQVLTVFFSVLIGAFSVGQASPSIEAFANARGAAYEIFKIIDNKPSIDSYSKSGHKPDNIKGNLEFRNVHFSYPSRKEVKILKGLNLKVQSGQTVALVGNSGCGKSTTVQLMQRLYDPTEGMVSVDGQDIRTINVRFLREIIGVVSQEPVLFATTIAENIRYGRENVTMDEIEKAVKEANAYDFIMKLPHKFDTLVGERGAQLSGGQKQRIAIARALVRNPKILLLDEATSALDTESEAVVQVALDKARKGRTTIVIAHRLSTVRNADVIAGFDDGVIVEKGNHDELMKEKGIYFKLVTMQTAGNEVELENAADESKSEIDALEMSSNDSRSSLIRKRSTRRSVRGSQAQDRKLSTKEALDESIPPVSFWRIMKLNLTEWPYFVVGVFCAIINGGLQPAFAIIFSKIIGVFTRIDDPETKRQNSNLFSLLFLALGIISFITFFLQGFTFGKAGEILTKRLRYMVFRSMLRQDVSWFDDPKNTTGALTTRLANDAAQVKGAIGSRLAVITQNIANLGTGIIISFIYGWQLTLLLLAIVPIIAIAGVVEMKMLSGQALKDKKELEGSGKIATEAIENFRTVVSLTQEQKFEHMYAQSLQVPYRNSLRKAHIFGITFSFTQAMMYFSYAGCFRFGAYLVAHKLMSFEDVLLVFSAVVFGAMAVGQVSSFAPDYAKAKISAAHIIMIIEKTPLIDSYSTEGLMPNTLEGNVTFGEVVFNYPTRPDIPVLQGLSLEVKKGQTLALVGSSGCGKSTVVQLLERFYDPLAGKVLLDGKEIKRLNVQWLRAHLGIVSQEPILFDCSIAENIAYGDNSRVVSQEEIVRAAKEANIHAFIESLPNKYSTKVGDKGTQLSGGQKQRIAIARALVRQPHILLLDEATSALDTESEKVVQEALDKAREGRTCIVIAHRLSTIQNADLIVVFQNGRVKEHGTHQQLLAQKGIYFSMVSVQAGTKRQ

Compound	Kp [1]	efflux ratio at 2 h, 1 µM [2]	efflux ratio at 2 h, 1 µM [3]	IC50 [4, 13] [µM]	IC50 [5] [µM]	Papp at 2 h, 1 µM [6] [×10⁻⁶ cm/s]	IC50 [7] [µM]	IC50 [4] [µM]	IC50 [8] [µM]	IC50 [9] [µM]	IC50 [11] [µM]	IC50 [10] [µM]	BCRP efflux ratio [12]
CO[C@@H]1CCN(S(=O)(=O)Nc2ccc(F)c(Oc3ccc4ncn(C)c(=O)c4c3F)c2Cl)C1 [Example 48, (R)-N-(2-chloro-4-fluoro-3-((5-fluoro-3-methyl-4-oxo-3,4-dihydroquinazolin-6-yl)oxy)phenyl)-3-methoxypyrrolidine-1-sulfonamide trifluoroacetate]	0.29 to 0.33	2.2	1.7	0.003	0.036	29	0.001	–	–	–	–	–	–
Cc1c(Oc2c(F)ccc(NS(=O)(=O)N3CC[C@@H](F)C3)c2Cl)ccc2ncn(C)c(=O)c12 [Example 70, (R)-N-(2-chloro-3-((3,5-dimethyl-4-oxo-3,4-dihydroquinazolin-6-yl)oxy)-4-fluorophenyl)-3-fluoropyrrolidine-1-sulfonamide]	0.17 to 0.36	1.8	1	–	0.043	25	0.014	0.008	–	–	–	–	–
CC(C)(C)c1nc(-c2cccc(NS(=O)(=O)c3c(F)cccc3F)c2F)c(-c2ccnc(N)n2)s1 [dabrafenib]	–	–	–	–	–	–	–	–	–	–	–	–	21.0
CCCS(=O)(=O)Nc1ccc(F)c(C(=O)c2c[nH]c3ncc(-c4ccc(Cl)cc4)cc23)c1F [vemurafenib]	–	–	–	–	–	–	–	–	–	–	–	–	495

Now from value to compound, other results behind:

Kp [1]	efflux ratio at 2 h, 1 µM [2]	efflux ratio at 2 h, 1 µM [3]	IC50 [4, 13] [µM]	IC50 [5] [µM]	Papp at 2 h, 1 µM [6] [×10⁻⁶ cm/s]	IC50 [7] [µM]	IC50 [4] [µM]	IC50 [8] [µM]	IC50 [9] [µM]	IC50 [11] [µM]	Compound	IC50 [10] [µM]	BCRP efflux ratio [12]
–	2.1	4.2	–	0.026	44	0.002	–	0.015	0.0014	0.39	Cn1cnc2ccc(Nc3c(F)ccc(NS(=O)(=O)N4CC(F)C4)c3Cl)c(Cl)c2c1=O [Example 126, N-(2-chloro-3-((5-chloro-3-methyl-4-oxo-3,4-dihydroquinazolin-6-yl)amino)-4-fluorophenyl)-3-fluoroazetidine-1-sulfonamide]	> 10	–
0.18 to 0.22	1.6	5.3	0.012	0.037	37	0.009	–	–	–	–	COC1CN(S(=O)(=O)Nc2ccc(F)c(Nc3ccc4ncn(C)c(=O)c4c3Cl)c2Cl)C1 [Example 129, N-(2-chloro-3-((5-chloro-3-methyl-4-oxo-3,4-dihydroquinazolin-6-yl)amino)-4-fluorophenyl)-3-methoxyazetidine-1-sulfonamide]	–	–
0.12 to 0.16	2.3	7.6	0.011	0.038	30	0.007	–	–	–	–	COC1CN(S(=O)(=O)Nc2ccc(F)c(Nc3ccc4ncn(C)c(=O)c4c3F)c2Cl)C1 [Example 130, N-(2-chloro-4-fluoro-3-((5-fluoro-3-methyl-4-oxo-3,4-dihydroquinazolin-6-yl)amino)phenyl)-3-methoxyazetidine-1-sulfonamide]	–	–
0.3 to 0.5	2.1	1.7	0.016	0.038	55	0.013	–	–	–	–	COCC1CN(S(=O)(=O)Nc2ccc(F)c(Nc3ccc4ncn(C)c(=O)c4c3C)c2Cl)C1 [Example 131, N-(2-chloro-3-((3,5-dimethyl-4-oxo-3,4-dihydroquinazolin-6-yl)amino)-4-fluorophenyl)-3-(methoxymethyl)azetidine-1-sulfonamide]	–	–
